Like-named read-outs stand apart in the source and are kept apart here.
Assay: Pharmacokinetics of HLJDD components in rat plasma after oral administration of HLJDD (LC-QqQ-MS, non-compartmental)
Assay type: in vivo, Sprague-Dawley rats
Settings: oral HLJDD extract; for AUC%Extrap / AUMClast / Cmax1 / Cmax2 / HLλz / Tmax1 / Tmax2 / AUC(0-inf) / AUC(0-t) / MRT last / CL/F / Vd/F / AUCinf / AUClast / MRTlast / Vz/F: crude material 3.5 g/kg, plasma, n = 6; for mean AUClast, fold larger in the inflamed group than in the control group: inflamed vs normal rats; for Vd/F: read-out: Vz/F
Protocol: The rats were acclimatized to the facilities for 5 days and screened via the continuous determination of the rectal temperature for two days. […] The control group G1 was injected with the same volume of physiological saline. The ethics committees of Cisco North Biotechnology Co., Ltd. (Beijing, China) and the China Academy of Chinese Medical Sciences (Beijing, China) approved the experimental protocol.
For the PK-PD analysis, cannulas were implanted in each rat’s jugular vein (n = 22). To study the hepatic first-pass effect (HFPE), the jugular vein and the pyloric vein of each rat (n = 5) were cannulated according to the method described by Hye J. Chung et al. with slight modifications. Instead of the portal vein, the pyloric vein was cannulated to minimize the interference of blood flow in the portal vein [41]. The surgery was performed under anesthesia (3% chloral hydrate solution, intraperitoneal injection; 3.5 mL/kg) 5 days prior to the experiment. Rats with jugular vein intubation surgery were divided into four groups: a control group with HLJDD (G1, n = 6), aninflammatory group with HLJDD (G2, n = 6), aninflammatory group with physiological saline (G3, n = 5) and another inflammatory group with HLJDD (G4, n = 5). G1 and G2 were used for the pharmacokinetic study, while G3 and G4 were used for the pharmacodynamic study. Rats with jugular and pyloric vein cannulation for HFPE analysis were assigned to another inflammatory group with HLJDD (G5, n = 5).
The prepared HLJDD-EP solution was administered to the rats (G1, G2, G4 and G5) at 2 mL/100g body weight (crude material content: 3.5 g/kg) by oral gavage, and the G3 group was given the same volume of physiological saline. […] The rectal temperature of rats in the G3 and G4 groups was immediately monitored after each collection of blood. […] Samples were collected in heparinized Eppendorf tubes and centrifuged at 3000 rpm for 15 min. The plasma was stored at -80°C until assay.
The supernatant was dried with nitrogen at 40°C. The residue was re-dissolved in 100 μL of methanol and centrifuged at 15000 rpm for 10 min.
Liquid chromatographic separations of the analytes were performed using a Thermo Scientific Hypersil GOLD column (50 mm× 2.1 mm, 1.9 μm). The mobile phase consisted of acetonitrile (solvent A) and 0.1% formic acid in water (solvent B). […] The flow rate was 0.3 mL/min. The injection volume was 2 μL. […] The optimized ESI source parameters were as follows: gas temperature, 200°C; gas flow, 14 L/min; nebulizer pressure, 20 psi; sheath gas temperature, 400°C; and sheath gas flow, 11 L/min. Analytes were quantitated by monitoring the precursor-product combination in the DMRM mode using ion polarity switching (flavonoids and alkaloids were determined in the positive mode, while iridoids were detected in the negative mode). To ensure the desired abundance of each compound, the CE values and other parameters were optimized and illustrated as follows: cycle time, 300 ms; positive capillary voltage, 3000 v; negative capillary voltage, 2000 v; positive nozzle voltage, 1500 v; negative nozzle voltage, 1000 v; Delta EMV(+), 200 v; Delta EMV(-), 200 v. The optimized mass transition ion pairs (m/z) for analytes and the detection of the conditions of the compounds are shown in S1 Table.
Pharmacokinetic parameters of the determined compounds were processed by the non-compartmental method using Phoenix Winnonlin software (Pharsight Corporation, USA). Linear trapezoidal integration was used to calculate areas under the concentration-time curves (AUC) and areas under the first moment curves (AUMC). The mean residence time (MRT) was determined as AUMC/AUC. The plasma half-life (HLλz), maximum plasma concentration (Cmax), the time to reach Cmax (Tmax) and other parameters following the administration of HLJDD were determined from the observed data. The HFPE was defined as HCR: HCR% = 100×(AUC0−t in the pyloric vein-AUC0−t in the jugular vein)/AUC0−t in the pyloric vein.

[1] = male, Sprague-Dawley, rat, po, 3.5 g/kg, inflamed rats (group M)
[2] = male, Sprague-Dawley, rat, po, 3.5 g/kg, inflamed rats (group M), read-out: CL/F (converted)
[3] = male, Sprague-Dawley, rat, po, 3.5 g/kg, normal rats (group B)
[4] = male, Sprague-Dawley, rat, in vivo, po, 3.5 g/kg, inflamed rats (group M)
[5] = male, Sprague-Dawley, rat, in vivo, po, 3.5 g/kg, normal rats (group B)

Structure (SMILES)	AUC%Extrap (inflamed rats (group M))	AUMClast (inflamed rats (group M))	Cmax1 (inflamed rats (group M))	Cmax2 (inflamed rats (group M))	HLλz (inflamed rats (group M))	Tmax1 (inflamed rats (group M))	Tmax2 (inflamed rats (group M))	mean AUClast, fold larger in the inflamed group than in the control group	AUC(0-inf) [1]	AUC(0-t) [1]	MRT last [1]	AUC(0-inf) [3]	AUC(0-t) [3]	AUC%Extrap (normal rats (group B))	AUMClast (normal rats (group B))	Cmax1 (normal rats (group B))	Cmax2 (normal rats (group B))	HLλz (normal rats (group B))	Tmax1 (normal rats (group B))	Tmax2 (normal rats (group B))	also measured
O=C(O)[C@H]1O[C@@H](Oc2cc3oc(-c4ccccc4)cc(=O)c3c(O)c2O)[C@H](O)[C@@H](O)[C@@H]1O [baicalin]	2.7±0.5%	175077.1±103375.1 h*h*ng/ml	2420.9 ± 922.5 ng/mL	1000.4 ± 298.1 ng/mL	4.7 ± 1.1 h	0.1 ± 0.04 h	9.3 ± 2.1 h	2.0 fold	16800 ± 9090 ng·h/mL	15700 ± 9300 ng·h/mL	10.1 ± 2.3 h	8130 ± 906 ng·h/mL	7880 ± 775 ng·h/mL	2.9±2.3%	34124.1±4967.9 h*h*ng/ml	1828.8 ± 737.4 ng/mL	1580.1 ± 202.4 ng/mL	1.8 ± 0.4 h	0.09 ± 0.03 h	4.3 ± 0.8 h	CL/F [2]: 145 mL/min/kg; Vd/F [1]: 58.8 ± 25.2 L/kg; MRT last [3]: 4.3 ± 0.3 h; CL/F (male, Sprague-Dawley, rat, po, 3.5 g/kg, normal rats (group B), read-out: CL/F (converted)): 258 mL/min/kg; Vd/F [3]: 39.6 ± 7.1 L/kg
COc1ccc2cc3[n+](cc2c1OC)CCc1cc2c(cc1-3)OCO2 [berberine]	10.7±7.0%	22.6±8.6 h*h*ng/ml	0.5 ± 0.2 ng/mL	0.3 ± 0.3 ng/mL	9.1 ± 2.5 h	1.0 ± 0.6 h	10.8 ± 2.7 h	2.1 fold	3.4 ± 0.7 ng·h/mL	2.7 ± 0.8 ng·h/mL	8.4 ± 3.1 h	1.8 ± 0.6 ng·h/mL	1.3 ± 0.5 ng·h/mL	25.9±15.5%	8.9±8.6 h*h*ng/ml	0.4 ± 0.1 ng/mL	0.1 ± 0.03 ng/mL	6.3 ± 3.5 h	0.6 ± 0.4 h	8.0 ± 2.2 h	MRT last [3]: 5.7 ± 3.5 h
COC(=O)C1=CO[C@@H](O[C@@H]2O[C@H](CO)[C@@H](O)[C@H](O)[C@H]2O)[C@@H]2C(CO)=CC[C@H]12 [geniposide]	8.9±2.9%	1231.9±677.2 h*h*ng/ml	223.2 ± 43.7 ng/mL	–	1.6 ± 0.7 h	0.8 ± 0.3 h	–	2.9 fold	–	–	–	–	–	11.5±1.5%	192.5±74.8 h*h*ng/ml	171.6 ± 70.6 ng/mL	–	0.6 ± 0.3 h	0.7 ± 0.3 h	–	AUC(0-inf) [4]: 696 ± 363 ng·h/mL; AUC(0-t) [4]: 638 ± 323 ng·h/mL; MRT last [4]: 1.9 ± 0.8 h; CL/F (male, Sprague-Dawley, rat, in vivo, po, 3.5 g/kg, inflamed rats (group M), read-out: CL/F (converted)): 3760 mL/min/kg; Vd/F [4]: 372 ± 86.7 L/kg; AUC(0-inf) [5]: 240 ± 82.1 ng·h/mL; AUC(0-t) [5]: 217 ± 86.2 ng·h/mL; MRT last [5]: 0.9 ± 0.1 h; CL/F (male, Sprague-Dawley, rat, in vivo, po, 3.5 g/kg, normal rats (group B), read-out: CL/F (converted)): 6860 mL/min/kg; Vd/F [5]: 235 ± 94.2 L/kg
COc1ccc2c(c1O)-c1c(O)c(OC)cc3c1[C@H](C2)[N+](C)(C)CC3 [magnolflorine]	17.6±8.0%	97.9±55.4 h*h*ng/ml	6.0 ± 1.7 ng/mL	–	4.3 ± 2.2 h	0.6 ± 0.3 h	–	1.6 fold	–	–	–	–	–	6.2±2.4%	29.5±5.8 h*h*ng/ml	6.5 ± 1.1 ng/mL	–	1.6 ± 0.4 h	0.6 ± 0.2 h	–	AUCinf (inflamed rats (group M)): 29.3 ± 13.8 ng·h/mL; AUClast (inflamed rats (group M)): 24.9 ± 14.6 ng·h/mL; MRTlast (inflamed rats (group M)): 4.1 ± 1.9 h; Vz/F (inflamed rats (group M)): 607.8 ± 396.5 L/kg; AUCinf (normal rats (group B)): 17.0 ± 2.0 ng·h/mL; AUClast (normal rats (group B)): 16.0 ± 2.0 ng·h/mL; CL/F (normal rats (group B)): 2377 ± 265 mL/min/kg; MRTlast (normal rats (group B)): 1.8 ± 0.1 h; Vz/F (normal rats (group B)): 339.5 ± 97.3 L/kg
COc1c(O[C@@H]2O[C@H](C(=O)O)[C@@H](O)[C@H](O)[C@H]2O)cc2oc(-c3ccccc3)cc(=O)c2c1O [oroxylin A-7-O-glucuronide]	46.2±12.3%	18194.0±6706.5 h*h*ng/ml	108.7 ± 47.6 ng/mL	65.5 ± 18.2 ng/mL	20.1 ± 6.1 h	0.09 ± 0.03 h	9.6 ± 2.2 h	–	–	–	–	–	–	10.3±6.8%	1935.2±487.3 h*h*ng/ml	106.9 ± 43.8 ng/mL	85.8 ± 40.3 ng/mL	3.2 ± 0.9 h	0.09 ± 0.03 h	4.0 ± 0.0 h	AUCinf (inflamed rats (group M)): 2157.4 ± 785.0 ng·h/mL; AUClast (inflamed rats (group M)): 1209.8 ± 606.4 ng·h/mL; CL/F (inflamed rats (group M)): 202 ± 70 mL/min/kg; MRTlast (inflamed rats (group M)): 12.5 ± 2.3 h; Vz/F (inflamed rats (group M)): 322.4 ± 22.0 L/kg; AUCinf (normal rats (group B)): 486.8 ± 96.9 ng·h/mL; AUClast (normal rats (group B)): 440.7 ± 106.9 ng·h/mL; CL/F (normal rats (group B)): 845 ± 225 mL/min/kg; MRTlast (normal rats (group B)): 4.4 ± 0.5 h; Vz/F (normal rats (group B)): 247.8 ± 140.4 L/kg
COc1c(O)cc2oc(-c3ccccc3)cc(=O)c2c1O [oroxylin A]	13.4±8.6%	365.4±192.9 h*h*ng/ml	2.5 ± 1.1 ng/mL	2.3 ± 0.8 ng/mL	16.3 ± 8.8 h	0.08 ± 0.0 h	7.0 ± 3.0 h	–	24.6 ± 6.1 ng·h/mL	21.1 ± 4.1 ng·h/mL	16.5 ± 6.2 h	2.4 ± 0.5 ng·h/mL	2.3 ± 0.5 ng·h/mL	5.3±3.4%	7.1±2.7 h*h*ng/ml	1.5 ± 0.6 ng/mL	0.4 ± 0.1 ng/mL	1.7 ± 0.9 h	0.08 ± 0.0 h	4.0 ± 0.0 h	CL/F [2]: 1790 mL/min/kg; Vd/F [1]: 2820 ± 507 L/kg; MRT last [3]: 3 ± 0.6 h; Vd/F [3]: 2500 ± 1080 L/kg

Reference: paper PMC4900566, “Pharmacokinetic-Pharmacodynamic Analysis on Inflammation Rat Model after Oral Administration of Huang Lian Jie Du Decoction” (PLoS ONE, 2016)
